Results: patent US20230293469A1, “NOVEL PHARMACEUTICAL COMPOSITIONS” (NEUROPRO THERAPEUTICS, INC., priority 2020, published 2023)
Where “and” joins values, the source holds several entries; their conditions need not be identical. Equal values may be shown once.

How the values were obtained:
Human Microsomes = assay: Metabolite screening of NPT-2042 in human microsomes; format: in vitro ADME; conditions: NPT-2042 10 uM, microsomes 1 mg/mL
Description: (§1) Incubation of Test Compound in Microsomes • 1. Compound final concentration: 10 uM. • 2. Microsomes concentration 1 mg/mL. • 3. Incubate for 1 hour, with an NADPH regenerating system. • 4. 0.5 mL of incubation mixture at 0 min and 1 hour, mixed with 0.5 mL of acetonitrile. • 5. Vortex, and centrifuge at 13200 rpm for 10 min. • 6. Supernatant was transferred to a clean vial for LCMS analysis NADPH regenerating system (cofactor; consisting of NADP [0.340 mg/mL], G6P [1.56 mg/mL], and G6PDH [0.4 U/mL] solutions) LC-MS/MS Method: • HPLC Column: Agilent, Polaris 3 […], 150×2.0 mm (S/N: 533819), made in Netherlands. • Guard Column: Agilent, MonoChrom 3 C18 MetaGuard, 10×2.0 mm (S/N: 556145) • Column temperature: 40° C. • Mobile Phase A: 5 mM ammonium format in water (Optima) • Mobile Phase B: acetonitrile (Optima) • Flow rate: 0.2 mL/min • Gradient (Table on right) • MS: Thermo Q Exactive Plus.

Rat Microsomes = assay: Metabolite screening of NPT-2042 in rat microsomes; format: in vitro ADME; conditions: NPT-2042 10 uM, microsomes 1 mg/mL
Description: as §1

[1] = IV bolus PK of NPT-2042 in rat; format: in vivo; conditions: IV bolus 10 mg/kg
[2] = Oral dose PK of NPT-2042 in rat; format: in vivo
Description: (§2) Assays were performed to determine absolute bioavailability of NPT2042 in two species: dog and rat. The calculation of absolute bioavailability depends on four inputs: the areas under the curves (AUC) for oral and IV, and the oral and IV doses.
Testing was conducted to determine AUCs for an oral dose in rat.

Dog Microsomes = assay: Metabolite screening of NPT-2042 in dog microsomes; format: in vitro ADME; conditions: NPT-2042 10 uM, microsomes 1 mg/mL
Description: as §1

[3] = IV bolus PK of NPT-2042 in dog; format: in vivo
Description: as §2
Testing was conducted to determine AUC for an IV dose in dog.
The same two dogs were each dosed 2042 IV at 10 mg/kg.
Table 8 provides Noncompartmental Parameters for NPT-2042 for 10 mg/kg Bolus Dosing of NPT-2042 in Dogs (n=2).

Microsomes = assay: Proposed metabolite structures and biotransformation pathways (rat, dog, human microsomes); format: in vitro ADME; conditions: rat, dog, human microsomes, 10 uM, 1 hour
Description: Incubation of Test Compound in Microsomes • 1. Compound final concentration: 10 uM. • 2. Microsomes concentration 1 mg/mL. • 3. Incubate for 1 hour, with an NADPH regenerating system. • 4. 0.5 mL of incubation mixture at 0 min and 1 hour, mixed with 0.5 mL of acetonitrile. • 5. Vortex, and centrifuge at 13200 rpm for 10 min. • 6. Supernatant was transferred to a clean vial for LCMS analysis NADPH regenerating system (cofactor; consisting of NADP [0.340 mg/mL], G6P [1.56 mg/mL], and G6PDH [0.4 U/mL] solutions)
LC-MS/MS Method: • HPLC Column: Agilent, Polaris 3 C18-A, 150×2.0 mm (S/N: 533819), made in Netherlands. • Guard Column: Agilent, MonoChrom 3 C18 MetaGuard, 10×2.0 mm (S/N: 556145) • Column temperature: 40° C. • Mobile Phase A: 5 mM ammonium format in water (Optima) • Mobile Phase B: acetonitrile (Optima) • Flow rate: 0.2 mL/min • Gradient (Table on right) • MS: Thermo Q Exactive Plus.
Summary of Proposed Metabolite Structures and Biotransformation Pathway

[4] = 1 hour, NADPH regenerating system
[5] = rat, individual rats and Mean (N=3), 10 mg/kg
[6] = rat, individual rats and Mean (N=3), 10 mg/kg, mean
[7] = plasma, NPT-2042, rat, oral 30 mg/kg
[8] = rat, oral, dose column 30 mg/kg, individual rats and Mean (N=3)
[9] = rat, oral, dose column 30 mg/kg, individual rats and Mean (N=3), mean
[10] = NPT-2042, dog, IV bolus 10 mg/kg, animals 1201A, 1501A, Mean, 10 mg/kg

CCCCNc1cc(C(=O)N(Cc2ccccc2)Cc2ccccc2)cc(S(N)(=O)=O)c1Oc1ccccc1 [NPT-2042, N,N-Dibenzyl 3-Aminosulfonyl-5-butylamino-4-phenoxybenzamide]
Human Mic (MS Intensity) (Human Microsomes; [4]): 1.64E+08 | Human Mic (MS Intensity) (Human Microsomes; T = 0): 3.71E+08 | Rat Mic (MS Intensity) (Rat Microsomes; [4]): 7.73E+07 | Rat Mic (MS Intensity) (Rat Microsomes; T = 0): 4.15E+08 | clearance ([1]; in vivo, NPT-2042, rat): 48 mL/min/kg | Vd ([1]; in vivo, NPT-2042, rat, read-out: Vz): 10.8 L/kg | half-life ([1]; in vivo, NPT-2042, rat, read-out: t½ (converted)): 2.61 h | AUC(0-inf) ([1]; plasma, NPT-2042, rat): 3470 ng·h/mL | Cmax ([1]; plasma, NPT-2042, rat): 2510 ng/mL | Tmax ([1]; plasma, NPT-2042, rat): 4.8 min | NPT-2042 concentration, Time 0.08 h [1, 5]: 3080 ng/mL and 2720 ng/mL | NPT-2042 concentration, Time 1.00 h [1, 5]: 250 ng/mL and 1190 ng/mL and 924 ng/mL | NPT-2042 concentration, Time 2.00 h [1, 5]: 477 ng/mL and 421 ng/mL | NPT-2042 concentration, Time 4.00 h [1, 5]: 205 ng/mL and 218 ng/mL | NPT-2042 concentration, Time 6.00 h [1, 5]: 203 ng/mL and 145 ng/mL and 60.8 ng/mL | NPT-2042 concentration, Time 8.00 h [1, 5]: 20.0 ng/mL and 33.1 ng/mL and 87.3 ng/mL | NPT-2042 concentration, Time 12.00 h [1, 5]: 60.8 ng/mL and 18.6 ng/mL and 4.67 ng/mL | NPT-2042 concentration, Time 24.00 h [1, 5]: 0.257 ng/mL and 0.582 ng/mL and 1.95 ng/mL | NPT-2042 concentration, Time 0.08 h [1, 6]: 2510 ng/mL | NPT-2042 concentration, Time 1.00 h [1, 6]: 788 ng/mL | NPT-2042 concentration, Time 2.00 h [1, 6]: 405 ng/mL | NPT-2042 concentration, Time 4.00 h [1, 6]: 196 ng/mL | NPT-2042 concentration, Time 6.00 h [1, 6]: 136 ng/mL | NPT-2042 concentration, Time 8.00 h [1, 6]: 46.8 ng/mL | NPT-2042 concentration, Time 12.00 h [1, 6]: 28.0 ng/mL | NPT-2042 concentration, Time 24.00 h [1, 6]: 0.930 ng/mL | concentration at 0.08 h ([1]; rat, plasma, iv, 10 mg/kg, rat, individual rats and Mean (N=3), read-out: NPT-2042 concentration, Time 0.08 h): 1720 ng/mL | concentration at 2 h ([1]; rat, plasma, iv, 10 mg/kg, rat, individual rats and Mean (N=3), read-out: NPT-2042 concentration, Time 2.00 h): 317 ng/mL | concentration at 4 h ([1]; rat, plasma, iv, 10 mg/kg, rat, individual rats and Mean (N=3), read-out: NPT-2042 concentration, Time 4.00 h): 165 ng/mL | half-life ([2]; in vivo, NPT-2042, rat, oral 30 mg/kg, read-out: t½ (converted)): 2.61 h | bioavailability ([2]; in vivo, rat, oral 30 mg/kg vs IV 10 mg/kg, read-out: Fabs (%), absolute bioavailability): 0.34% | AUC(0-inf) [2, 7]: 35.4 ng·h/mL | Cmax [2, 7]: 4.56 ng/mL | Tmax [2, 7]: 4 h | concentration at 0.5 h ([2]; rat, in vivo, oral, 30 mg/kg, rat, oral, dose column 30 mg/kg, individual rats and Mean (N=3), read-out: NPT-2042 concentration, Time 0.50 h): 2.01 ng/mL | concentration at 2 h ([2]; rat, in vivo, oral, 30 mg/kg, rat, oral, dose column 30 mg/kg, individual rats and Mean (N=3), read-out: NPT-2042 concentration, Time 2.00 h): 4 ng/mL | concentration at 4 h ([2]; rat, in vivo, oral, 30 mg/kg, rat, oral, dose column 30 mg/kg, individual rats and Mean (N=3), read-out: NPT-2042 concentration, Time 4.00 h): 3.52 ng/mL | concentration at 6 h ([2]; rat, in vivo, oral, 30 mg/kg, rat, oral, dose column 30 mg/kg, individual rats and Mean (N=3), read-out: NPT-2042 concentration, Time 6.00 h): 3.99 ng/mL | concentration at 12 h ([2]; rat, in vivo, oral, 30 mg/kg, rat, oral, dose column 30 mg/kg, individual rats and Mean (N=3), read-out: NPT-2042 concentration, Time 12.00 h): 0.78 ng/mL | Fabs (ratio), absolute bioavailability ([2]; rat, oral 30 mg/kg vs IV 10 mg/kg): 0.0034 | NPT-2042 concentration, Time 0.50 h [2, 8]: 1.29 ng/mL and 1.67 ng/mL | NPT-2042 concentration, Time 1.00 h [2, 8]: 2.14 ng/mL and 4.70 ng/mL and 2.45 ng/mL | NPT-2042 concentration, Time 2.00 h [2, 8]: 2.88 ng/mL and 3.60 ng/mL | NPT-2042 concentration, Time 4.00 h [2, 8]: 5.42 ng/mL and 4.73 ng/mL | NPT-2042 concentration, Time 6.00 h [2, 8]: 2.49 ng/mL and 4.15 ng/mL | NPT-2042 concentration, Time 8.00 h [2, 8]: 1.57 ng/mL and 2.57 ng/mL and 3.20 ng/mL | NPT-2042 concentration, Time 12.00 h [2, 8]: 0.715 ng/mL and 0.731 ng/mL | NPT-2042 concentration, Time 0.50 h [2, 9]: 1.66 ng/mL | NPT-2042 concentration, Time 1.00 h [2, 9]: 3.10 ng/mL | NPT-2042 concentration, Time 2.00 h [2, 9]: 3.49 ng/mL | NPT-2042 concentration, Time 4.00 h [2, 9]: 4.56 ng/mL | NPT-2042 concentration, Time 6.00 h [2, 9]: 3.54 ng/mL | NPT-2042 concentration, Time 8.00 h [2, 9]: 2.45 ng/mL | NPT-2042 concentration, Time 12.00 h [2, 9]: 0.742 ng/mL | Dog Mic (MS Intensity) (Dog Microsomes; [4]): 1.85E+08 | Dog Mic (MS Intensity) (Dog Microsomes; T = 0): 3.79E+08 | C0 (back-extrapolated concentration) [3, 10]: 5680 ng/mL and 6440 ng/mL | CL (total body clearance) [3, 10]: 19.5 mL/min/kg and 16.2 mL/min/kg | Tmax [3, 10]: 4.98 min | Vz (volume of distribution) [3, 10]: 6.44 L/kg and 6.54 L/kg | t½ (terminal-phase half-life) [3, 10]: 3.82 h and 4.67 h | Plasma NPT-2042 concentrations (in words) ([3]; dog, IV bolus 10 mg/kg): high and still quantifiable at 24 hours after dosing | Diuresis ([3]; dog, IV bolus 10 mg/kg NPT-2042): lack of diuresis | Decay profile after bolus dosing ([3]; dog, IV bolus 10 mg/kg, log-linear plots): multi-exponential decay | AUC(0-inf) ([3]; dog, plasma, iv, 10 mg/kg, NPT-2042, dog, IV bolus 10 mg/kg, animals 1201A, 1501A, Mean): 8560 ng·h/mL | C0 ([3]; dog, plasma, iv, 10 mg/kg, NPT-2042, dog, IV bolus 10 mg/kg, animals 1201A, 1501A, Mean, read-out: C0 (back-extrapolated concentration)): 6060 ng/mL | clearance ([3]; dog, plasma, iv, 10 mg/kg, NPT-2042, dog, IV bolus 10 mg/kg, animals 1201A, 1501A, Mean, read-out: CL (total body clearance) (converted)): 17.8 mL/min/kg | Cmax ([3]; dog, plasma, iv, 10 mg/kg, NPT-2042, dog, IV bolus 10 mg/kg, animals 1201A, 1501A, Mean, read-out: Cmax): 5210 ng/mL | Tmax ([3]; dog, plasma, iv, 10 mg/kg, NPT-2042, dog, IV bolus 10 mg/kg, animals 1201A, 1501A, Mean, read-out: Tmax): 4.8 min | Vd ([3]; dog, plasma, iv, 10 mg/kg, NPT-2042, dog, IV bolus 10 mg/kg, animals 1201A, 1501A, Mean, read-out: Vz (volume of distribution)): 6.49 L/kg | half-life ([3]; dog, plasma, iv, 10 mg/kg, NPT-2042, dog, IV bolus 10 mg/kg, animals 1201A, 1501A, Mean, read-out: t½ (terminal-phase half-life) (converted)): 4.25 h | concentration at 0.08 h ([3]; dog, plasma, iv, 10 mg/kg, dog, IV bolus 10 mg/kg, animals 1201A, 1501A, Mean, read-out: Plasma NPT-2042 concentration, Time 0.08 h): 5560 ng/mL | concentration at 1 h ([3]; dog, plasma, iv, 10 mg/kg, dog, IV bolus 10 mg/kg, animals 1201A, 1501A, Mean, read-out: Plasma NPT-2042 concentration, Time 1.00 h): 2240 ng/mL | concentration at 2 h ([3]; dog, plasma, iv, 10 mg/kg, dog, IV bolus 10 mg/kg, animals 1201A, 1501A, Mean, read-out: Plasma NPT-2042 concentration, Time 2.00 h): 1230 ng/mL | concentration at 4 h ([3]; dog, plasma, iv, 10 mg/kg, dog, IV bolus 10 mg/kg, animals 1201A, 1501A, Mean, read-out: Plasma NPT-2042 concentration, Time 4.00 h): 688 ng/mL | concentration at 6 h ([3]; dog, plasma, iv, 10 mg/kg, dog, IV bolus 10 mg/kg, animals 1201A, 1501A, Mean, read-out: Plasma NPT-2042 concentration, Time 6.00 h): 326 ng/mL | concentration at 8 h ([3]; dog, plasma, iv, 10 mg/kg, dog, IV bolus 10 mg/kg, animals 1201A, 1501A, Mean, read-out: Plasma NPT-2042 concentration, Time 8.00 h): 182 ng/mL | CL as fraction of hepatic blood flow ([3]; dog, hepatic blood flow about 1.5 L/h/kg): about ⅔ | Major biotransformation pathways (Microsomes): De-alkylation, Mono-oxidation, and Mono-oxidation and De-alkylation
